In the NIST ThermoML archive (doi:10.1016/j.fluid.2016.07.034):
Numbers after ± are expanded uncertainties.

Test: molar heat capacity at constant pressure
Details: Flow calorimetry

In the case of `CCF` [fluoroethane], the “molar heat capacity at constant pressure” value (343.89 K, 5970 kPa, Liquid) is reported as 123.05 ± 1.2 J/K/mol, the “molar heat capacity at constant pressure” value (343.9 K, 6530 kPa, Liquid) is reported as 121.47 ± 1.2 J/K/mol and the “molar heat capacity at constant pressure” value (343.9 K, 7040 kPa, Liquid) is reported as 120.17 ± 1.2 J/K/mol. The “molar heat capacity at constant pressure” value (343.9 K, 7540 kPa, Liquid) was 118.86 ± 1.2 J/K/mol, the “molar heat capacity at constant pressure” value (343.91 K, 5560 kPa, Liquid) was 124.9 ± 1.3 J/K/mol and the “molar heat capacity at constant pressure” value (343.91 K, 8070 kPa, Liquid) was 117.76 ± 1.2 J/K/mol. The “molar heat capacity at constant pressure” value (343.91 K, 8530 kPa, Liquid) was 116.74 ± 1.2 J/K/mol, the “molar heat capacity at constant pressure” value (343.92 K, 9010 kPa, Liquid) was 115.78 ± 1.2 J/K/mol and the “molar heat capacity at constant pressure” value (343.92 K, 9480 kPa, Liquid) was 114.8 ± 1.2 J/K/mol. The “molar heat capacity at constant pressure” value (343.92 K, 10010 kPa, Liquid) was 113.86 ± 1.2 J/K/mol, the “molar heat capacity at constant pressure” value (343.92 K, 10500 kPa, Liquid) was 112.99 ± 1.1 J/K/mol and the “molar heat capacity at constant pressure” value (343.93 K, 5100 kPa, Liquid) was 126.98 ± 1.3 J/K/mol. For the same compound, the “molar heat capacity at constant pressure” value (343.93 K, 11010 kPa, Liquid) was 112.27 ± 1.1 J/K/mol, the “molar heat capacity at constant pressure” value (343.96 K, 11570 kPa, Liquid) was 111.8 ± 1.1 J/K/mol and the “molar heat capacity at constant pressure” value (343.99 K, 12130 kPa, Liquid) was 111.22 ± 1.1 J/K/mol. For the same compound, the “molar heat capacity at constant pressure” value (344.36 K, 2000 kPa, Gas) was 89.95 ± 1.7 J/K/mol, the “molar heat capacity at constant pressure” value (345.01 K, 1810 kPa, Gas) was 82.66 ± 1.5 J/K/mol and the “molar heat capacity at constant pressure” value (345.19 K, 1220 kPa, Gas) was 72.72 ± 1.1 J/K/mol. For the same compound, the “molar heat capacity at constant pressure” value (345.35 K, 1600 kPa, Gas) was 77.74 ± 1.3 J/K/mol, the “molar heat capacity at constant pressure” value (345.47 K, 1420 kPa, Gas) was 74.9 ± 1.2 J/K/mol and the “molar heat capacity at constant pressure” value (353.68 K, 3480 kPa, Liquid) was 157.19 ± 1.7 J/K/mol. For the same compound, the “molar heat capacity at constant pressure” value (353.77 K, 8480 kPa, Liquid) was 121.76 ± 1.2 J/K/mol, the “molar heat capacity at constant pressure” value (353.78 K, 7950 kPa, Liquid) was 123.23 ± 1.2 J/K/mol and the “molar heat capacity at constant pressure” value (353.79 K, 6470 kPa, Liquid) was 128.91 ± 1.3 J/K/mol. The “molar heat capacity at constant pressure” value (353.79 K, 9090 kPa, Liquid) was 120.56 ± 1.2 J/K/mol, the “molar heat capacity at constant pressure” value (353.79 K, 10010 kPa, Liquid) was 118.76 ± 1.2 J/K/mol and the “molar heat capacity at constant pressure” value (353.8 K, 7530 kPa, Liquid) was 124.7 ± 1.3 J/K/mol. The “molar heat capacity at constant pressure” value (353.8 K, 9570 kPa, Liquid) was 119.62 ± 1.2 J/K/mol, the “molar heat capacity at constant pressure” value (353.8 K, 10480 kPa, Liquid) was 117.97 ± 1.2 J/K/mol and the “molar heat capacity at constant pressure” value (353.81 K, 6000 kPa, Liquid) was 131.53 ± 1.3 J/K/mol. For the same compound, the “molar heat capacity at constant pressure” value (353.81 K, 7130 kPa, Liquid) was 126.37 ± 1.3 J/K/mol, the “molar heat capacity at constant pressure” value (353.81 K, 11040 kPa, Liquid) was 117.35 ± 1.2 J/K/mol and the “molar heat capacity at constant pressure” value (353.82 K, 4030 kPa, Liquid) was 149.07 ± 1.6 J/K/mol. For the same compound, the “molar heat capacity at constant pressure” value (353.82 K, 5500 kPa, Liquid) was 134.57 ± 1.4 J/K/mol, the “molar heat capacity at constant pressure” value (353.84 K, 11540 kPa, Liquid) was 116.89 ± 1.2 J/K/mol and the “molar heat capacity at constant pressure” value (353.85 K, 5030 kPa, Liquid) was 138.32 ± 1.4 J/K/mol. The “molar heat capacity at constant pressure” value (353.86 K, 4500 kPa, Liquid) was 143.57 ± 1.5 J/K/mol, the “molar heat capacity at constant pressure” value (353.87 K, 11950 kPa, Liquid) was 116.16 ± 1.2 J/K/mol and the “molar heat capacity at constant pressure” value (355.25 K, 1910 kPa, Gas) was 81.51 ± 1.3 J/K/mol. The “molar heat capacity at constant pressure” value (355.27 K, 1520 kPa, Gas) was 75.85 ± 1.2 J/K/mol, the “molar heat capacity at constant pressure” value (355.27 K, 1700 kPa, Gas) was 78.58 ± 1.3 J/K/mol and the “molar heat capacity at constant pressure” value (355.27 K, 2110 kPa, Gas) was 85.11 ± 1.4 J/K/mol. For the same compound, the “molar heat capacity at constant pressure” value (355.28 K, 1310 kPa, Gas) was 73.7 ± 1.2 J/K/mol, the “molar heat capacity at constant pressure” value (355.3 K, 1130 kPa, Gas) was 71.61 ± 1.1 J/K/mol and the “molar heat capacity at constant pressure” value (355.31 K, 2610 kPa, Gas) was 99.72 ± 1.9 J/K/mol. For the same compound, the “molar heat capacity at constant pressure” value (355.33 K, 2820 kPa, Gas) was 109.04 ± 2.1 J/K/mol, the “molar heat capacity at constant pressure” value (355.48 K, 2360 kPa, Gas) was 90.82 ± 1.6 J/K/mol and the “molar heat capacity at constant pressure” value (355.52 K, 2590 kPa, Gas) was 97.73 ± 1.9 J/K/mol. For the same compound, the “molar heat capacity at constant pressure” value (363.33 K, 4330 kPa, Liquid) was 193.61 ± 2.2 J/K/mol, the “molar heat capacity at constant pressure” value (363.59 K, 7000 kPa, Liquid) was 139.97 ± 1.4 J/K/mol and the “molar heat capacity at constant pressure” value (363.59 K, 7500 kPa, Liquid) was 136.22 ± 1.4 J/K/mol. For the same compound, the “molar heat capacity at constant pressure” value (363.59 K, 8480 kPa, Liquid) was 130.33 ± 1.3 J/K/mol, the “molar heat capacity at constant pressure” value (363.6 K, 8030 kPa, Liquid) was 132.67 ± 1.4 J/K/mol and the “molar heat capacity at constant pressure” value (363.61 K, 9520 kPa, Liquid) was 125.95 ± 1.3 J/K/mol. For the same compound, the “molar heat capacity at constant pressure” value (363.61 K, 10000 kPa, Liquid) was 123.85 ± 1.3 J/K/mol, the “molar heat capacity at constant pressure” value (363.62 K, 6030 kPa, Liquid) was 150.44 ± 1.6 J/K/mol and the “molar heat capacity at constant pressure” value (363.62 K, 6520 kPa, Liquid) was 144.76 ± 1.5 J/K/mol. The “molar heat capacity at constant pressure” value (363.63 K, 8990 kPa, Liquid) was 128.17 ± 1.3 J/K/mol, the “molar heat capacity at constant pressure” value (363.66 K, 5490 kPa, Liquid) was 159.6 ± 1.7 J/K/mol and the “molar heat capacity at constant pressure” value (363.66 K, 10580 kPa, Liquid) was 122.57 ± 1.2 J/K/mol. For the same compound, the “molar heat capacity at constant pressure” value (363.68 K, 11000 kPa, Liquid) was 121.51 ± 1.2 J/K/mol, the “molar heat capacity at constant pressure” value (363.7 K, 4990 kPa, Liquid) was 171.83 ± 2 J/K/mol and the “molar heat capacity at constant pressure” value (363.71 K, 11510 kPa, Liquid) was 120.57 ± 1.2 J/K/mol. For the same compound, the “molar heat capacity at constant pressure” value (363.75 K, 12010 kPa, Liquid) was 119.55 ± 1.2 J/K/mol, the “molar heat capacity at constant pressure” value (365.28 K, 2190 kPa, Gas) was 82.06 ± 1.3 J/K/mol and the “molar heat capacity at constant pressure” value (365.28 K, 2400 kPa, Gas) was 85.63 ± 1.4 J/K/mol. The “molar heat capacity at constant pressure” value (365.29 K, 2010 kPa, Gas) was 79.35 ± 1.3 J/K/mol, the “molar heat capacity at constant pressure” value (365.3 K, 1810 kPa, Gas) was 76.69 ± 1.2 J/K/mol and the “molar heat capacity at constant pressure” value (365.33 K, 2600 kPa, Gas) was 89.76 ± 1.5 J/K/mol. For the same compound, the “molar heat capacity at constant pressure” value (365.34 K, 1600 kPa, Gas) was 74.44 ± 1.2 J/K/mol, the “molar heat capacity at constant pressure” value (365.39 K, 1200 kPa, Gas) was 71.16 ± 1.1 J/K/mol and the “molar heat capacity at constant pressure” value (365.39 K, 1410 kPa, Gas) was 72.82 ± 1.1 J/K/mol. The “molar heat capacity at constant pressure” value (365.42 K, 2800 kPa, Gas) was 94.54 ± 1.6 J/K/mol, the “molar heat capacity at constant pressure” value (365.46 K, 2990 kPa, Gas) was 99.69 ± 1.8 J/K/mol and the “molar heat capacity at constant pressure” value (365.54 K, 3400 kPa, Gas) was 118.14 ± 2.4 J/K/mol. The “molar heat capacity at constant pressure” value (365.75 K, 3200 kPa, Gas) was 107.31 ± 2.1 J/K/mol, the “molar heat capacity at constant pressure” value (373.37 K, 5540 kPa, Liquid) was 218.6 ± 3 J/K/mol and the “molar heat capacity at constant pressure” value (373.47 K, 9520 kPa, Liquid) was 134.79 ± 1.4 J/K/mol. The “molar heat capacity at constant pressure” value (373.48 K, 9010 kPa, Liquid) was 138.16 ± 1.4 J/K/mol, the “molar heat capacity at constant pressure” value (373.53 K, 8500 kPa, Liquid) was 142.08 ± 1.5 J/K/mol and the “molar heat capacity at constant pressure” value (373.53 K, 9990 kPa, Liquid) was 132.61 ± 1.3 J/K/mol. The “molar heat capacity at constant pressure” value (373.53 K, 11480 kPa, Liquid) was 126.08 ± 1.3 J/K/mol, the “molar heat capacity at constant pressure” value (373.54 K, 8000 kPa, Liquid) was 146.44 ± 1.5 J/K/mol and the “molar heat capacity at constant pressure” value (373.55 K, 6030 kPa, Liquid) was 187.59 ± 2.4 J/K/mol. The “molar heat capacity at constant pressure” value (373.56 K, 6990 kPa, Liquid) was 159.83 ± 1.7 J/K/mol, the “molar heat capacity at constant pressure” value (373.56 K, 10990 kPa, Liquid) was 128.66 ± 1.3 J/K/mol and the “molar heat capacity at constant pressure” value (373.57 K, 7500 kPa, Liquid) was 151.89 ± 1.6 J/K/mol. For the same compound, the “molar heat capacity at constant pressure” value (373.58 K, 6510 kPa, Liquid) was 170.77 ± 1.9 J/K/mol, the “molar heat capacity at constant pressure” value (373.58 K, 10550 kPa, Liquid) was 130.44 ± 1.3 J/K/mol and the “molar heat capacity at constant pressure” value (383.1 K, 6560 kPa, Liquid) was 239.16 ± 3.5 J/K/mol. For the same compound, the “molar heat capacity at constant pressure” value (383.57 K, 7020 kPa, Liquid) was 204.1 ± 2.8 J/K/mol, the “molar heat capacity at constant pressure” value (383.71 K, 10040 kPa, Liquid) was 140.17 ± 1.4 J/K/mol and the “molar heat capacity at constant pressure” value (383.71 K, 10550 kPa, Liquid) was 136.16 ± 1.4 J/K/mol. For the same compound, the “molar heat capacity at constant pressure” value (383.74 K, 9490 kPa, Liquid) was 145.93 ± 1.5 J/K/mol, the “molar heat capacity at constant pressure” value (383.74 K, 11270 kPa, Liquid) was 132.02 ± 1.3 J/K/mol and the “molar heat capacity at constant pressure” value (383.78 K, 7490 kPa, Liquid) was 182.33 ± 2.1 J/K/mol. For the same compound, the “molar heat capacity at constant pressure” value (383.81 K, 9090 kPa, Liquid) was 151.38 ± 1.6 J/K/mol, the “molar heat capacity at constant pressure” value (383.86 K, 7980 kPa, Liquid) was 172.97 ± 1.9 J/K/mol and the “molar heat capacity at constant pressure” value (383.87 K, 8520 kPa, Liquid) was 160.93 ± 1.7 J/K/mol. The “molar heat capacity at constant pressure” value (383.88 K, 12030 kPa, Liquid) was 129.42 ± 1.3 J/K/mol.
